Values joined by “and” are separate entries in the source; they are usually repeats but may differ in a detail not shown here. Identical values can stand only once. Like-named read-outs stand apart in the source and are kept apart here.
What was measured:
[1] = target: T1, Electric eel acetylcholinesterase (AChE, EC 3.1.1.7) (Electrophorus electricus, UniProt O42275); assay: biochemical
T1 construct: purchased Sigma-Aldrich (USA)
Text: (§1) Ellman’s colorimetric method with minor modification was employed in the determination of AChE and BChE inhibitory activities. Electric eel acetylcholinesterase (AChE, EC 3.1.1.7), equine serum butyrylcholinesterase (BChE, EC 3.1.1.8), 5,5′-Dithiobis(2-nitrobenzoic acid) (DTNB) and sodium phosphate dibasic (Na2HPO4) were purchased from Sigma-Aldrich (USA). S-butyrylthiocholine chloride (BTCC) from Sigma-Aldrich (Switzerland), acetylthiocholine iodide (ATCI) from Sigma-Aldrich (United Kingdom) and sodium phosphate monobasic (NaH2PO4) from Sigma-Aldrich (Germany) were purchased. […] Ethanol was used to replace the sample as a control in this assay.

[2] = target: T2, equine serum butyrylcholinesterase (BChE, EC 3.1.1.8) (Equus caballus, UniProt P81908); assay: biochemical; type: biochemical; settings: for BChE % inhibition: single read
T2 construct: equine serum butyrylcholinesterase (BChE, EC 3.1.1.8); purchased Sigma-Aldrich (USA); host or cells: equine serum
Text: as §1

[3] = mean ± SD, n = 3, read-out: IC50 (µM) AChE
[4] = mean ± SD, n = 3, read-out: IC50 (µM) BChE
[5] = average of three reads, read-out: AChE IC50 (µM) Average
[6] = average of three reads, read-out: AChE IC50 (µg/mL) Average (converted)
[7] = first read, read-out: AChE IC50 (µM) First read
[8] = second read, read-out: AChE IC50 (µM) Second read
[9] = single read, unit not printed at place (µg/mL), read-out: AChE IC50 from regression on raw-data page (converted)
[10] = third read, read-out: AChE IC50 (µM) Third read
[11] = N = 3, unit not given (µg/mL scale), read-out: BChE IC50, Tukey HSD homogeneous subsets (group mean) (converted)
[12] = average of three reads, read-out: BChE IC50 (µM) Average
[13] = average of three reads, read-out: BChE IC50 (µg/mL) Average (converted)
[14] = first read, read-out: BChE IC50 (µM) First read
[15] = first read, read-out: BChE IC50 (µg/mL) First read (converted)
[16] = second read, read-out: BChE IC50 (µM) Second read
[17] = second read, read-out: BChE IC50 (µg/mL) Second read (converted)
[18] = third read, read-out: BChE IC50 (µM) Third read
[19] = third read, read-out: BChE IC50 (µg/mL) Third read (converted)
[20] = second read, read-out: AChE IC50 (µg/mL) Second read (converted)
[21] = third read, read-out: AChE IC50 (µg/mL) Third read (converted)
[22] = first read, read-out: AChE IC50 (µg/mL) First read (converted)

T2 sequence (P81908 whole entry): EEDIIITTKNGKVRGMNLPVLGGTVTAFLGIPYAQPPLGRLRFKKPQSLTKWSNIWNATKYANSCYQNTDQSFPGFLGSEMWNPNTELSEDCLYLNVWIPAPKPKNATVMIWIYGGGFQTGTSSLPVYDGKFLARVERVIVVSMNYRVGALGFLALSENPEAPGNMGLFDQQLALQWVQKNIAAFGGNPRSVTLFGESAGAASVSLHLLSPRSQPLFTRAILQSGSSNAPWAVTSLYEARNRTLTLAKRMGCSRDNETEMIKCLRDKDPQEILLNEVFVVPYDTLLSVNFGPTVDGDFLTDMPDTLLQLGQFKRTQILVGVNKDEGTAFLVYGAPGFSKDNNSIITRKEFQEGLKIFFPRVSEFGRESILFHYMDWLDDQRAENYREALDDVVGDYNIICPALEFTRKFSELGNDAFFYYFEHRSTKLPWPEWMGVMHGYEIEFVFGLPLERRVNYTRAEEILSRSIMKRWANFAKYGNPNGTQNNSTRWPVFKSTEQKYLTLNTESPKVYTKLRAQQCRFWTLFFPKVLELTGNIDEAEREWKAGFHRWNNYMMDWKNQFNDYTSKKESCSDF
T1 sequence (O42275 24-633): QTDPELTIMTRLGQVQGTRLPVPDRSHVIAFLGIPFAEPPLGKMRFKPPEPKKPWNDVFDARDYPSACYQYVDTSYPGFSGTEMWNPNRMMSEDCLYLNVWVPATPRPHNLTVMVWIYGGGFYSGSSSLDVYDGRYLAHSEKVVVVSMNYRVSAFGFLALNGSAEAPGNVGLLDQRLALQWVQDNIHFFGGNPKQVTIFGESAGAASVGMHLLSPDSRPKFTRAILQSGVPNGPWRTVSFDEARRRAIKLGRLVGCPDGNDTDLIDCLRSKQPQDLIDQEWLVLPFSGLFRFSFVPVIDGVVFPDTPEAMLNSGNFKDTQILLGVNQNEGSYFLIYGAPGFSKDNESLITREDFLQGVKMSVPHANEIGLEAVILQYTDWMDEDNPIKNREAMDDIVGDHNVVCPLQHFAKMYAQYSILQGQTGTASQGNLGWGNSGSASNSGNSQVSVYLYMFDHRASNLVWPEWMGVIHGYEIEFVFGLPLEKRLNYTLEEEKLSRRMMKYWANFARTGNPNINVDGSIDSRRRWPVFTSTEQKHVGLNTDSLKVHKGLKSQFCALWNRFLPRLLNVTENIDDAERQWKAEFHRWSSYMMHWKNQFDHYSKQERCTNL

Row | SMILES | IC50 [1, 3] [µM] | IC50 [2, 4] [µM] | IC50 [1, 5] [µM] | IC50 [1, 6] [µM] | AChE % inhibition ([1]; conc 50 (µg/mL), single read) | AChE % inhibition ([1]; conc 100 (µg/mL), single read) | AChE % inhibition ([1]; conc 150 (µg/mL), single read) | AChE % inhibition ([1]; conc 200 (µg/mL), single read) | IC50 [1, 7] [µM] | IC50 [1, 8] [µM] | IC50 [1, 10] [µM] | IC50 [2, 11] [µM] | IC50 [2, 12] [µM] | IC50 [2, 13] [µM] | BChE % inhibition ([2]; conc 50 (µg/mL)) | BChE % inhibition ([2]; conc 100 (µg/mL)) | IC50 [2, 14] [µM] | IC50 [2, 15] [µM] | IC50 [1, 20] [µM] | IC50 [1, 21] [µM] | also measured
1 | c1ccn2cc(C34CC5CC(CC(C5)C3)C4)nc2c1 [Compound 2a, 2-(adamantan-1-yl)imidazo[1,2-a]pyridine] | > 2000 | > 2000 | – | – | – | – | – | – | – | – | – | – | – | – | – | – | – | – | – | – | –
2 | Cc1cccn2cc(C34CC5CC(CC(C5)C3)C4)nc12.O [Compound 2b, 2-(adamantan-1-yl)-8-methylimidazo[1,2-a]pyridine hydrate] | 657 ± 60 | 706 ± 37 | 657 | 614 | 23.63% and 19.6906% and 32.91% | 27.71% and 37.97% and 34.60% | 38.54% and 49.65% and 47.82% | 52.60% and 54.71% and 61.74% | 721 | 646 | 603 | 663 | 706 | 660 | 21.17% and 17.3469% and 18.49% | 28.06% and 27.68% and 30.36% | 681 | 637 | – | – | IC50 ([1]; N = 3, unit not printed (µg/mL scale), read-out: AChE IC50, Tukey HSD homogeneous subsets (group mean) (converted)): 614 µM; AChE % inhibition ([1]; conc 250 (µg/mL), single read): 60.34% and 65.68% and 64.70%; AChE % inhibition ([1]; conc 300 (µg/mL), single read): 75.67% and 76.23% and 73.56%; IC50 [1, 9]: 674 µM and 605 µM and 564 µM; BChE % inhibition ([2]; conc 200 (µg/mL)): 49.87% and 45.66% and 43.75%; BChE % inhibition ([2]; conc 300 (µg/mL)): 64.41% and 61.35% and 67.86%; BChE % inhibition ([2]; conc 400 (µg/mL)): 72.45% and 75.51%; BChE % inhibition ([2]; conc 500 (µg/mL)): 80.48% and 74.74% and 73.60%; BChE % inhibition ([2]; conc 600 (µg/mL)): 81.63% and 77.81%; BChE % inhibition ([2]; conc 700 (µg/mL)): 82.40% and 85.08% and 88.14%; IC50 [2, 16]: 748 µM; IC50 [2, 17]: 700 µM; IC50 [2, 18]: 689 µM; IC50 [2, 19]: 644 µM
3 | Cc1ccn2cc(C34CC5CC(CC(C5)C3)C4)nc2c1.O [Compound 2c, 2-(adamantan-1-yl)-7-methylimidazo[1,2-a]pyridine hydrate] | 270 ± 21 | > 2000 | 270 | 252 | 41.33% and 47.36% and 42.61% | 56.96% and 48.25% and 49.14% | 68.34% and 71.41% and 72.20% | 71.21% and 69.72% and 76.25% | 293 | 267 | 250 | – | – | – | – | – | – | – | 249 | 234 | AChE % inhibition ([1]; conc 25 (µg/mL), single read): 20.55% and 27.0778% and 32.32%; AChE % inhibition ([1]; conc 250 (µg/mL), single read): 76.15% and 78.73% and 78.33%; IC50 [1, 9]: 274 µM
4 | Cc1ccc2nc(C34CC5CC(CC(C5)C3)C4)cn2c1 [Compound 2d, 2-(adamantan-1-yl)-6-methylimidazo[1,2-a]pyridine] | > 2000 | > 2000 | – | – | – | – | – | – | – | – | – | – | – | – | – | – | – | – | – | – | –
5 | Clc1ccn2cc(C34CC5CC(CC(C5)C3)C4)nc2c1 [Compound 2e, 2-(adamantan-1-yl)-7-chloroimidazo[1,2-a]pyridine hydrate] | > 2000 | > 2000 | – | – | – | – | – | – | – | – | – | – | – | – | – | – | – | – | – | – | –
6 | c1ccc(-c2ccc(-c3cn4ccccc4n3)cc2)cc1 [Compound 2f, 2-([1,1′-biphenyl]-4-yl)imidazo[1,2-a]pyridine] | 208 ± 17 | > 2000 | 208 | 208 | – | – | – | – | 228 | 196 | 200 | – | – | – | – | – | – | – | 196 | 200 | AChE % inhibition ([1]; conc 30 (µg/mL), single read): -1.6523% and -0.07%; AChE % inhibition ([1]; conc 40 (µg/mL), single read): 19.47% and 31.90% and 23.42%; AChE % inhibition ([1]; conc 60 (µg/mL), single read): 46.62% and 65.66% and 72.27%; AChE % inhibition ([1]; conc 70 (µg/mL), single read): 57.54% and 72.63% and 80.68%; AChE % inhibition ([1]; conc 80 (µg/mL), single read): 86.28% and 82.61% and 80.17%; IC50 [1, 22]: 228 µM
7 | Cc1cccn2cc(-c3ccc(-c4ccccc4)cc3)nc12 [Compound 2g, 2-([1,1′-biphenyl]-4-yl)-8-methylimidazo[1,2-a]pyridine] | 288 ± 48 | 315 ± 6 | 288 | 288 | – | 66.67% and 62.62% and 65.90% | 81.50% and 87.67% and 85.81% | 83.04% and 90.94% and 100.39% | 343 | 264 | 258 | 315 | 315 | 315 | – | 61.12% and 73.89% and 66.92% | 311 | 310 | 263 | 258 | AChE % inhibition ([1]; conc 250 (µg/mL), single read): 106.74% and 92.10% and 107.32%; AChE % inhibition ([1]; conc 300 (µg/mL), single read): 140.85% and 130.64% and 128.52%; IC50 [1, 22]: 343 µM; BChE % inhibition ([2]; conc 60 (µg/mL)): 7.74% and 0.19% and 6.00%; BChE % inhibition ([2]; conc 80 (µg/mL)): 35.59% and 45.45% and 37.33%; BChE % inhibition ([2]; conc 90 (µg/mL)): 48.36% and 35.01% and 51.84%; BChE % inhibition ([2]; conc 110 (µg/mL)): 84.33% and 65.76% and 66.92%; BChE % inhibition ([2]; conc 120 (µg/mL)): 106.96% and 76.79% and 121.47%; IC50 [2, 16]: 322 µM; IC50 [2, 17]: 322 µM; IC50 [2, 18]: 312 µM; IC50 [2, 19]: 311 µM
8 | Cc1ccc2nc(-c3ccc(-c4ccccc4)cc3)cn2c1 [Compound 2h, 2-([1,1′-biphenyl]-4-yl)-6-methylimidazo[1,2-a]pyridine] | 79 ± 10 | 496 ± 27 | 79.2 | 79.1 | 92.28% and 79.96% and 93.21% | 99.77% and 84.22% and 106.56% | – | – | 83.8 | 86.3 | 67.4 | 484 | 496 | 496 | 28.12% and 20.13% and 20.63% | 19.13% and 27.12% and 17.64% | 485 | 484 | 86.2 | 67.3 | AChE % inhibition ([1]; conc 25 (µg/mL), single read): 58.20% and 76.39% and 68.79%; AChE % inhibition ([1]; conc 75 (µg/mL), single read): 92.40% and 88.83% and 96.55%; IC50 [1, 22]: 83.7 µM; BChE % inhibition ([2]; conc 150 (µg/mL)): 48.09% and 45.09% and 49.08%; BChE % inhibition ([2]; conc 200 (µg/mL)): 83.03% and 81.03% and 75.54%; BChE % inhibition ([2]; conc 250 (µg/mL)): 102.50% and 115.97% and 86.02%; IC50 [2, 16]: 477 µM; IC50 [2, 17]: 476 µM; IC50 [2, 18]: 528 µM; IC50 [2, 19]: 527 µM
9 | Clc1cccn2cc(-c3ccc(-c4ccccc4)cc3)nc12 [Compound 2i, 2-([1,1′-biphenyl]-4-yl)-8-chloroimidazo[1,2-a]pyridine] | 253 ± 25 | > 2000 | 253 | 253 | 10.30% and 14.24% and 6.35% | 49.40% and 76.34% and 66.48% | 92.44% and 89.16% and 84.56% | 97.37% and 103.61% and 101.97% | 269 | 225 | 266 | – | – | – | – | – | – | – | 224 | 265 | AChE % inhibition ([1]; conc 75 (µg/mL), single read): 37.90% and 58.60% and 35.60%; AChE % inhibition ([1]; conc 125 (µg/mL), single read): 81.60% and 94.74% and 74.70%; IC50 [1, 22]: 268 µM
10 | Clc1ccc(-c2cn3ccccc3n2)cc1Cl [Compound 2j, 2-(3,4-dichlorophenyl)imidazo[1,2-a]pyridine] | > 2000 | – | – | – | – | – | – | – | – | – | – | 75.6 | – | – | 63.01% and 66.76% and 69.65% | 91.04% and 87.86% and 90.17% | – | – | – | – | BChE % inhibition ([2]; conc 12.5 (µg/mL)): 27.75% and 48.55% and 34.78%; BChE % inhibition ([2]; conc 25 (µg/mL)): 50.87% and 55.49% and 62.14%
11 | Cc1cccn2cc(-c3ccc(Cl)c(Cl)c3)nc12 [Compound 2k, 2-(3,4-dichlorophenyl)-8-methylimidazo[1,2-a]pyridine] | > 2000 | 191 ± 29 | – | – | – | – | – | – | – | – | – | 197 | 191 | 191 | 44.12% and 38.16% and 45.75% | 66.91% and 74.50% | 225 | 224 | – | – | BChE % inhibition ([2]; conc 150 (µg/mL)): 80.47% and 68.54% and 70.16%; BChE % inhibition ([2]; conc 200 (µg/mL)): 146.65% and 115.19%; IC50 [2, 16]: 177 µM; IC50 [2, 17]: 176 µM; IC50 [2, 18]: 172 µM; IC50 [2, 19]: 171 µM
12 | COc1ccc(-c2cn3ccccc3n2)cc1 [Compound 2l, 2-(4-methoxyphenyl)imidazo[1,2-a]pyridine] | > 2000 | > 2000 | – | – | – | – | – | – | – | – | – | – | – | – | – | – | – | – | – | – | –
13 | COc1ccc(-c2cn3cccc(C)c3n2)cc1 [Compound 2m, 2-(4-methoxyphenyl)-8-methylimidazo[1,2-a]pyridine] | > 2000 | > 2000 | – | – | – | – | – | – | – | – | – | – | – | – | – | – | – | – | – | – | –

Source: publication PMC6354011 (Scientific Reports, 2019)
